In patent US10098902B2, “Arginase inhibitors as therapeutics” (Mars, Incorporated, priority 2010, dated 2018):

Key:
[1] = molecular target: human arginase I (ARG I) (Homo sapiens (Human), UniProt P05089); experiment: Inhibition of arginase I, spectrophotometric urea assay at 530 nm; type: biochemical; details: potency rank 1-5; pH 7.4, 37° C., 60 minutes
Method: (§1) Inhibition of arginase I (ARG I) and arginase II (ARG II) by Formula I or Formula II compounds is followed spectrophotometrically at 530 nm. The compound to be tested was dissolved in DMSO at an initial concentration 50-fold greater than its final concentration in the cuvette. 10 μl of the stock solution was diluted in 90 μl of the assay buffer that comprises 0.1M sodium phosphate buffer containing 130 mM NaCl, pH 7.4, to which is added ovalbumin (OVA) at a concentration of 1 mg/ml. Solutions of arginase I and II were prepared in 100 mM sodium phosphate buffer, pH 7.4 containing 1 mg/ml of OVA to give an arginase stock solution at a final concentration of 100 ng/ml.
(§2) To each well of a 96-well microtiter plate was added 40 μl of enzyme, 10 μl of an inventive compound and 10 μl of enzyme substrate (L-arginine+manganese sulfate). For wells that were used as positive controls, only the enzyme and its substrate were added, while wells used as negative controls contained only manganese sulfate.
(§3) After incubating the microtiter plate at 37° C. for 60 minutes, 150 μl of a urea reagent obtained by combining equal proportions (1:1) of reagents A and B is added to each well of the microtiter plate to stop the reaction. The urea reagent is made just before use by combining Reagent A (10 mM o-phthaldialdehyde, and 0.4% polyoxyethylene (23) lauryl ether (w/v) in 1.8 M sulfuric acid) with Reagent B (1.3 mM primaquine diphosphate, 0.4% polyoxyethylene (23) lauryl ether (w/v), 130 mM boric acid in 3.6 mM sulfuric acid). After quenching the reaction mixture, the microtiter plate is allowed to stand for an additional 10 minutes at room temperature to allow the color to develop. The inhibition of arginase was computed by measuring the optical density (OD) of the reaction mixture at 530 nm and normalizing the OD value to percent inhibition observed in the control. The normalized OD is then used to generate a dose-response curve by plotting the normalized OD values against log [concentration] and using regression analysis to compute the IC50 values.

[2] = molecular target: human arginase II (ARG II) (Homo sapiens (Human), UniProt P78540); experiment: Inhibition of arginase II, spectrophotometric urea assay at 530 nm; type: biochemical; details: potency rank 1-5; pH 7.4, 37° C., 60 minutes
Sequence of human arginase II (ARG II) (P78540 23-354): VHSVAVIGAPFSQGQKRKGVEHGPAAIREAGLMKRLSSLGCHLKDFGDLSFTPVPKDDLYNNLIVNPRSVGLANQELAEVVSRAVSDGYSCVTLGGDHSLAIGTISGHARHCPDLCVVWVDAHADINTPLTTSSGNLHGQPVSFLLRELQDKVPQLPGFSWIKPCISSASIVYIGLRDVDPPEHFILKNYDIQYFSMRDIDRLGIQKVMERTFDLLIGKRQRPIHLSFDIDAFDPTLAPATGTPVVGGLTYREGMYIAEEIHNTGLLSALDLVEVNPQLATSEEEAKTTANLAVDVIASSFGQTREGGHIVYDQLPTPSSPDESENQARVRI
Method: as §1, §2, §3

Sequence of human arginase I (ARG I) (P05089 whole entry): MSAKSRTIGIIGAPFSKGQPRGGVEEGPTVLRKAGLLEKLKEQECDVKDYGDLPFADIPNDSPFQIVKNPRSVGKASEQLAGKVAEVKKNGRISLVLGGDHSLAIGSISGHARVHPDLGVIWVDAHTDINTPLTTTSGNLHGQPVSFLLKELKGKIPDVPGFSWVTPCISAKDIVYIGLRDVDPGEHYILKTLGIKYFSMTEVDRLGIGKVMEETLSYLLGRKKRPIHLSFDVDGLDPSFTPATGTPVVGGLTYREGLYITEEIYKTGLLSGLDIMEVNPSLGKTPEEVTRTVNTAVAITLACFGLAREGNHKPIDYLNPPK

Structure (SMILES) | IC50 [1] [nM] | IC50 [2] [nM]
N[C@@]1(C(=O)O)CN(Cc2c[nH]cn2)C[C@@H]1CCCB(O)O [Example 20, (3R,4S)-1-((1H-imidazol-4-yl)methyl)-3-amino-4-(3-boronopropyl)pyrrolidine-3-carboxylic acid] | 0.1 to 250 | 251 to 1000
N[C@@]1(C(=O)O)CN(CC2CCCCN2)C[C@@H]1CCCB(O)O (stereo partly drawn) [Example 21, (3R,4S)-3-amino-4-(3-boronopropyl)-1-(piperidin-2-ylmethyl)pyrrolidine-3-carboxylic acid] | 0.1 to 250 | 0.1 to 250
N[C@@]1(C(=O)O)CN(CCCc2ccc(Cl)cc2)C[C@@H]1CCCB(O)O [Example 22, (3R,4S)-3-amino-4-(3-boronopropyl)-1-(3-(4-chlorophenyl)propyl)pyrrolidine-3-carboxylic acid] | 251 to 1000 | 251 to 1000
N[C@@]1(C(=O)O)CN(c2ncnc3nc[nH]c23)C[C@@H]1CCCB(O)O [Example 23, (3R,4S)-3-amino-4-(3-boronopropyl)-1-(7H-purin-6-yl)pyrrolidine-3-carboxylic acid] | 251 to 1000 | 1000 to 2000
NCCN1C[C@H](CCCB(O)O)[C@](N)(C(=O)O)C1 [Example 24, (3R,4S)-3-amino-1-(2-aminoethyl)-4-(3-boronopropyl)pyrrolidine-3-carboxylic acid] | 0.1 to 250 | 0.1 to 250
N[C@@]1(C(=O)O)CN(c2cncc(C(=O)O)c2)C[C@@H]1CCCB(O)O [Example 25, 5-((3R,4S)-3-amino-4-(3-boronopropyl)-3-carboxypyrrolidin-1-yl)nicotinic acid] | 251 to 1000 | 251 to 1000
N[C@@]1(C(=O)O)CN(C2CCNCC2)C[C@@H]1CCCB(O)O [Example 26, (3R,4S)-3-amino-4-(3-boronopropyl)-1-(piperidin-4-yl)pyrrolidine-3-carboxylic acid] | 251 to 1000 | 251 to 1000
N[C@@]1(C(=O)O)CN(C2CCNC2)C[C@@H]1CCCB(O)O (stereo partly drawn) [Example 27, (3R,4S)-3-amino-4-(3-boronopropyl)-1,3′-bipyrrolidine-3-carboxylic acid] | 0.1 to 250 | 0.1 to 250
N[C@@]1(C(=O)O)CN(C2CCCNC2)C[C@@H]1CCCB(O)O (stereo partly drawn) [Example 28, (3R,4S)-3-amino-4-(3-boronopropyl)-1-(piperidin-3-yl)pyrrolidine-3-carboxylic acid] | 0.1 to 250 | 251 to 1000
N[C@@]1(C(=O)O)CN(Cc2ccccn2)C[C@@H]1CCCB(O)O [Example 29, (3R,4S)-3-amino-4-(3-boronopropyl)-1-(pyridin-2-ylmethyl)pyrrolidine-3-carboxylic acid] | 1000 to 2000 | 1000 to 2000
N[C@@]1(C(=O)O)CN(C2CCC(C(=O)O)CC2)C[C@@H]1CCCB(O)O (stereo partly drawn) [Example 30, (3R,4S)-3-amino-4-(3-boronopropyl)-1-(4-carboxycyclohexyl)pyrrolidine-3-carboxylic acid] | 251 to 1000 | 1000 to 2000
Cn1ccnc1CN1C[C@H](CCCB(O)O)[C@](N)(C(=O)O)C1 [Example 31, (3R,4S)-3-amino-4-(3-boronopropyl)-1-((1-methyl-1H-imidazol-2-yl)methyl)pyrrolidine-3-carboxylic acid] | 0.1 to 250 | 251 to 1000
Cc1ccncc1N1C[C@H](CCCB(O)O)[C@](N)(C(=O)O)C1 [Example 32, (3R,4S)-3-amino-4-(3-boronopropyl)-1-(4-methylpyridin-3-yl)pyrrolidine-3-carboxylic acid] | 1000 to 2000 | 1000 to 2000
N[C@@]1(C(=O)O)CN(CCN2CCCCC2)C[C@@H]1CCCB(O)O [Example 33, (3R,4S)-3-amino-4-(3-boronopropyl)-1-(2-(piperidin-1-yl)ethyl)pyrrolidine-3-carboxylic acid] | 0.1 to 250 | 251 to 1000
CCN(CC)CCN1C[C@H](CCCB(O)O)[C@](N)(C(=O)O)C1 [Example 34, (3R,4S)-3-amino-4-(3-boronopropyl)-1-(2-(diethylamino)ethyl)pyrrolidine-3-carboxylic acid] | 0.1 to 250 | 251 to 1000
CN[C@@]1(C(=O)O)CNC[C@@H]1CCCB(O)O [Example 35, (3R,4S)-4-(3-boronopropyl)-3-(methylamino)pyrrolidine-3-carboxylic acid] | 251 to 1000 | 251 to 1000
CN1CCCCC1CN1C[C@H](CCCB(O)O)[C@](N)(C(=O)O)C1 (stereo partly drawn) [Example 36, (3R,4S)-3-amino-4-(3-boronopropyl)-1-((1-methylpiperidin-2-yl)methyl)pyrrolidine-3-carboxylic acid] | 0.1 to 250 | 251 to 1000
N[C@@]1(C(=O)O)CN(CC2CCCN2)C[C@@H]1CCCB(O)O (stereo partly drawn) [Example 37, (3R,4S)-3-amino-4-(3-boronopropyl)-1-(pyrrolidin-2-ylmethyl)pyrrolidine-3-carboxylic acid] | 0.1 to 250 | 251 to 1000
N[C@@]1(C(=O)O)CN(CCN2CCCC2)C[C@@H]1CCCB(O)O [Example 38, (3R,4S)-3-amino-4-(3-boronopropyl)-1-(2-(pyrrolidin-1-yl)ethyl)pyrrolidine-3-carboxylic acid] | 0.1 to 250 | 0.1 to 250
N[C@@]1(C(=O)O)CN(C[C@@H]2Cc3ccccc3CN2)C[C@@H]1CCCB(O)O [Example 39, (3R,4S)-3-amino-4-(3-boronopropyl)-1-(((S)-1,2,3,4-tetrahydroisoquinolin-3-yl)methyl)pyrrolidine-3-carboxylic acid] | 0.1 to 250 | 0.1 to 250
N[C@@]1(C(=O)O)CN(CCNCc2ccccc2)C[C@@H]1CCCB(O)O [Example 40, (3R,4S)-3-amino-1-(2-(benzylamino)ethyl)-4-(3-boronopropyl)pyrrolidine-3-carboxylic acid] | 0.1 to 250 | 0.1 to 250
N[C@@]1(C(=O)O)CN(CCNCc2ccc(Cl)c(Cl)c2)C[C@@H]1CCCB(O)O [Example 41, (3R,4S)-3-amino-4-(3-boronopropyl)-1-(2-(3,4-dichlorobenzylamino)ethyl)pyrrolidine-3-carboxylic acid] | 0.1 to 250 | 0.1 to 250
N[C@@]1(C(=O)O)CN(C(=O)Nc2ccc(Cl)cc2)C[C@@H]1CCCB(O)O [Example 42, (3R,4S)-3-amino-4-(3-boronopropyl)-1-(4-chlorophenylcarbamoyl)pyrrolidine-3-carboxylic acid] | 251 to 1000 | 251 to 1000
N[C@@]1(C(=O)O)CN(C(=O)[C@@H]2CCCN2)C[C@@H]1CCCB(O)O [Example 43, (3R,4S)-3-amino-4-(3-boronopropyl)-1-((S)-pyrrolidine-2-carbonyl)pyrrolidine-3-carboxylic acid] | 0.1 to 250 | 251 to 1000
NC1CCCCC1N1C[C@H](CCCB(O)O)[C@](N)(C(=O)O)C1 (stereo partly drawn) [Example 44, (3R,4S)-3-amino-1-(2-aminocyclohexyl)-4-(3-boronopropyl)pyrrolidine-3-carboxylic acid] | 0.1 to 250 | 0.1 to 250
N[C@@]1(C(=O)O)CN(C(=O)Cc2ccc(Cl)cc2)C[C@@H]1CCCB(O)O [Example 45, (3R,4S)-3-amino-4-(3-boronopropyl)-1-(2-(4-chlorophenyl)acetyl)pyrrolidine-3-carboxylic acid] | 251 to 1000 | 251 to 1000
COc1ccc(C(=O)N2C[C@H](CCCB(O)O)[C@](N)(C(=O)O)C2)cc1 [Example 47, (3R,4S)-3-amino-4-(3-boronopropyl)-1-(4-methoxybenzoyl)pyrrolidine-3-carboxylic acid] | 251 to 1000 | 251 to 1000
